According to BindingDB's records for doi:10.1021/acs.biochem.6b00786 (University of California Irvine, 2016):

Tests used:
[1] = target: Nitric oxide synthase oxygenase [E25A,E26A,E316A] (Bacillus subtilis, UniProt O34453, E25A/E26A/E316A); experiment: bBiDomain assay
Procedure: (§1) Reactions were carried out using the buffered solution reported for the three-component reaction. The bBiDomain reactions included 100 nm bBiDomain and either YumC or FLDR at 1 μm; except for reactions in which YumC concentrations were varied. For inhibition assays, inhibitors were added at 30 μm. Similar to the three-component reaction, bBiDomain reactions were initiated with NADPH at a final concentration of 400 μm, quenched by thermal denaturation, and analyzed by Griess reaction.

[2] = target: Nitric oxide synthase oxygenase [E25A,E26A,I218V,E316A] (Bacillus subtilis, UniProt O34453, E25A/E26A/E316A/I218V); experiment: bBiDomain assay
Procedure: as §1

## Cc1cc(N)nc2ccccc12
[1]
  IC50: 36.6 µM
[2]
  IC50: 53.3 µM
